How the values were obtained:
[1] = system: human pulmonary artery endothelial cells (hPAEC); assay: BrdU cell proliferation assay, 10% FBS, hPAEC; type: cell-based
Procedure: (§1) BrdU (5-bromo-2-deoxyuridine) cell proliferation assay (BrdU assay)
(§2) A 48-well plate was used, and 1.5×10^4 cells were implanted in each well. After 24 hours, the medium was changed to serum-free culture medium and synchronized for 24 hours. A 2-fold concentration of the compound in serum-free culture medium is prepared and the cells were pretreated for 1 hour. Then, the same volume of culture medium containing 20% fetal bovine serum (FBS) was added to dilute the compound. The final concentration was 10% FBS culture medium and 1 times the concentration of the compound. In the experimental group that added TGF-β, the same volume of TGF-β culture medium containing 10 ng/mL was added, with a final concentration of 5 ng/mL TGF-β and 1 times the concentration of the compound, and in the experimental group added with TGF-β, the entire process was conducted in culture medium containing 0.1% serum. Then, BrdU reagent was added about 6 hours later, and the cells were collected the next day for enzyme-linked immunosorbent assay (ELISA) analysis, the compound treatment time was about 24 hours, and the BrdU treatment time was about 18 hours.
(§3) Five compounds to be tested were screened by cell survival assay (MTT assay) and BrdU (5-bromo-2-deoxyuridine) cell proliferation assay, and the information of these compounds was listed in Table 1 below. Tables 2 and 3 respectively listed the growth inhibitions of on human pulmonary artery endothelial cells (hPAEC), human pulmonary artery smooth muscle cells (hPASMC), normal rat pulmonary artery smooth muscle cells (rPASMC, as the control group, represented by “CON”), and rat pulmonary artery smooth muscle cells (represented by “MCT”), by the five compounds to be tested under the conditions of 10% FBS, 0.1% FBS and 100 pM TGF-β.

[2] = system: monocrotaline induced pulmonary hypertension rat; assay: Monocrotaline-induced pulmonary arterial hypertension rat model, Example 2 (7-DHC, 042); type: in vivo; conditions: for Arterial gas analysis pH value, PaO2 and PaCO2, in words: between groups CON, MCT and treated; for Base excess (BE) value: MCT group −5.5, normal −2 to +2
Description: Pulmonary arterial hypertension animal experimental model
The present disclosure utilizes injection of monocrotaline to induce symptoms of pulmonary arterial hypertension in rats to establish a pulmonary arterial hypertension animal experimental model suitable for screening test drugs.
The diagnostic method of clinical pulmonary arterial hypertension standards is right heart catheterization, which is defined as mean pulmonary arterial pressure (mPAP) greater than or equal to 20 mmHg. The diagnostic criteria for pulmonary arterial hypertension, in addition to an increase in mean pulmonary arterial pressure, need to be combined with pulmonary vascular resistance (PVR) greater than 3 Wood unit. The right ventricle pressure (RVP) and systemic mean blood pressure (mbp) in rats with pulmonary arterial hypertension were measured by Millar Model PCU200 pressure system, and the heart rate (HR) was also monitored at the same time. After measuring the hemodynamic data, the arterial blood was extracted from the carotid artery of the pulmonary arterial hypertension rat, and the Abbott blood oximeter (i-STAT) combined with Abbott's special chip cartridge (i-STAT Cartridge G3+) was used to measure arterial gas analysis data such as pH, PaO2, PaCO2, HCO3 and base excess (BE) value in quantitative whole blood samples. The normal pH value is between 7.35 and 7.45, and the pH value indicates whether the experimental animal has the condition of acidemia, alkalemia, acidosis or alkalosis. The normal value of PaO2 is between 80 and 100 mmHg, which reflects the effectiveness of gas exchange (ventilation/perfusion). The normal value of PaCO2 is between 35 and 45 (such as 38 and 42) mmHg, which can evaluate the effectiveness of alveolar ventilation. The acid produced by food, tissue decomposition, inflammation and hypoxia rely on the lungs to excrete volatile acid CO2 (short-term) and the bicarbonate (HCO3^−) produced by the kidneys (long-term) to neutralize non-volatile acids, while the normal value of bicarbonate hydrogen radical (HCO3^−) is between 22 and 26 meq/L. BE is the base excess value, its normal value ranges from −2 to +2, the negative value represents the degree of alkali ion deficiency in the blood, a negative BE value (−) that is too high indicates metabolic acidosis, and a positive value (+) that is too high is metabolic alkalosis. At the end of the experiment, the rats were sacrificed and their hearts were removed and the left and right ventricles were separated and weighed (RV)/(S)+(LV).
Monocrotaline (MCT) was utilized to induce pulmonary hypertension rat animal model, the TGF-β receptor inhibitor 7-DHC (039) and compound No. 042 were tested via intraperitoneal (IP) administration, and the physiological parameters of the animals were collected, wherein includes measuring right ventricle pressure, systemic arterial pressure, heartbeat and right ventricle hypertrophy, as well as observing and analyzing the pulmonary artery thickening and blood oxygenation levels through pathological sections of lung tissue. Specifically, 7-DHC (039) was divided into two groups with a dosage of 10 mg/kg or 20 mg/kg, the dosage of group 042 was 50 mg/kg, each dosage group has 3 rats (n=3), while the control group (CON) and the pulmonary arterial hypertension rat group (MCT) had 6 rats (n=6) respectively.

[3] = system: normal rat pulmonary artery smooth muscle cells (rPASMC CON); assay: BrdU cell proliferation assay, 0.1% FBS, 100 pM TGF-β, rPASMC CON; type: cell-based; conditions: 100 pM TGF-β
Procedure: as §1
as §2, with “with a final concentration of 5 ng/mL TGF-β and 1 times the concentration” left out
Five compounds to be tested were screened by cell survival assay (MTT assay) and BrdU (5-bromo-2-deoxyuridine) cell proliferation assay, and the information of these compounds was listed in Table 1 below.

[4] = system: normal rat pulmonary artery smooth muscle cells (rPASMC CON); assay: BrdU cell proliferation assay, 10% FBS, rPASMC CON; type: cell-based
Procedure: as §1, §2, §3

[5] = system: PAH rat pulmonary artery smooth muscle cells (rPASMC MCT); assay: BrdU cell proliferation assay, 0.1% FBS, 100 pM TGF-β, rPASMC MCT; type: cell-based; conditions: 100 pM TGF-β
Procedure: as §1, §2, §3

CC(C)CCCC(C)C1CCC2C3=CC=C4CC(O)CCC4(C)C3CCC21C (stereo not shown) [Code 039, 7-DHC]
EC50 ([1]; Homo sapiens, Endothelial cell, read-out: EC50 (concentration for 50% of maximal effect)): 47 µM | Inhibition of cell growth (in words) ([1]; hPAEC, 10% FBS, FIG. 2): inhibition of cell growth can also be observed | Arterial gas analysis pH value, PaO2 and PaCO2, in words ([2]; 10 mg/kg IP): did not show any significant differences | Thickness of the pulmonary artery blood vessels (medial wall thickness), in words ([2]; 10 mg/kg IP, p<0.001, vs MCT rats (exceeded 55%)): significantly reduced | Base excess (BE) value ([2]; 10 mg/kg IP): −2 | Animal survival status ([2]; 20 mg/kg IP, 23rd day after monocrotaline induction): had died | Arterial gas analysis pH value, PaO2 and PaCO2, in words ([2]; 20 mg/kg IP): did not show any significant differences | Base excess (BE) value ([2]; 20 mg/kg IP): 0 | Systemic blood pressure and heartbeat, in words ([2]; 10 or 20 mg/kg IP): did not reduce | Right ventricle pressure (RVP), in words ([2]; 10 or 20 mg/kg IP, vs MCT rats (28 mmHg)): can be reduced | EC50 ([3]; Rattus norvegicus, CON (normal rPASMC), 0.1% FBS, read-out: EC50): 30 µM | Inhibition of cell growth (in words) ([3]; rPASMC CON3, 0.1% FBS, 25 μM, FIG. 3): significant inhibitory effects | EC50 ([4]; Rattus norvegicus, read-out: EC50 (concentration for 50% of maximal effect)): 38 µM | Inhibition of cell growth (in words) ([4]; rPASMC CON1, 10% FBS, FIG. 2): significant inhibitory effects | EC50 ([5]; Rattus norvegicus, MCT (PAH rPASMC), 0.1% FBS, read-out: EC50): 20 µM | Inhibition of cell growth (in words) ([5]; rPASMC MCT2, 0.1% FBS, 25 μM, FIG. 3): significant inhibitory effects
